Assay results taken from PMC10102842 (Clinical cancer research : an official journal of the …, 2023).

Biological target: DNA polymerase theta (Polθ) (Homo sapiens, UniProt O75417)
Assay: Nano-luciferase MMEJ reporter assay in HEK-293 cells
Assay type: cell-based

DNA polymerase theta (Polθ), sequence (O75417 whole entry): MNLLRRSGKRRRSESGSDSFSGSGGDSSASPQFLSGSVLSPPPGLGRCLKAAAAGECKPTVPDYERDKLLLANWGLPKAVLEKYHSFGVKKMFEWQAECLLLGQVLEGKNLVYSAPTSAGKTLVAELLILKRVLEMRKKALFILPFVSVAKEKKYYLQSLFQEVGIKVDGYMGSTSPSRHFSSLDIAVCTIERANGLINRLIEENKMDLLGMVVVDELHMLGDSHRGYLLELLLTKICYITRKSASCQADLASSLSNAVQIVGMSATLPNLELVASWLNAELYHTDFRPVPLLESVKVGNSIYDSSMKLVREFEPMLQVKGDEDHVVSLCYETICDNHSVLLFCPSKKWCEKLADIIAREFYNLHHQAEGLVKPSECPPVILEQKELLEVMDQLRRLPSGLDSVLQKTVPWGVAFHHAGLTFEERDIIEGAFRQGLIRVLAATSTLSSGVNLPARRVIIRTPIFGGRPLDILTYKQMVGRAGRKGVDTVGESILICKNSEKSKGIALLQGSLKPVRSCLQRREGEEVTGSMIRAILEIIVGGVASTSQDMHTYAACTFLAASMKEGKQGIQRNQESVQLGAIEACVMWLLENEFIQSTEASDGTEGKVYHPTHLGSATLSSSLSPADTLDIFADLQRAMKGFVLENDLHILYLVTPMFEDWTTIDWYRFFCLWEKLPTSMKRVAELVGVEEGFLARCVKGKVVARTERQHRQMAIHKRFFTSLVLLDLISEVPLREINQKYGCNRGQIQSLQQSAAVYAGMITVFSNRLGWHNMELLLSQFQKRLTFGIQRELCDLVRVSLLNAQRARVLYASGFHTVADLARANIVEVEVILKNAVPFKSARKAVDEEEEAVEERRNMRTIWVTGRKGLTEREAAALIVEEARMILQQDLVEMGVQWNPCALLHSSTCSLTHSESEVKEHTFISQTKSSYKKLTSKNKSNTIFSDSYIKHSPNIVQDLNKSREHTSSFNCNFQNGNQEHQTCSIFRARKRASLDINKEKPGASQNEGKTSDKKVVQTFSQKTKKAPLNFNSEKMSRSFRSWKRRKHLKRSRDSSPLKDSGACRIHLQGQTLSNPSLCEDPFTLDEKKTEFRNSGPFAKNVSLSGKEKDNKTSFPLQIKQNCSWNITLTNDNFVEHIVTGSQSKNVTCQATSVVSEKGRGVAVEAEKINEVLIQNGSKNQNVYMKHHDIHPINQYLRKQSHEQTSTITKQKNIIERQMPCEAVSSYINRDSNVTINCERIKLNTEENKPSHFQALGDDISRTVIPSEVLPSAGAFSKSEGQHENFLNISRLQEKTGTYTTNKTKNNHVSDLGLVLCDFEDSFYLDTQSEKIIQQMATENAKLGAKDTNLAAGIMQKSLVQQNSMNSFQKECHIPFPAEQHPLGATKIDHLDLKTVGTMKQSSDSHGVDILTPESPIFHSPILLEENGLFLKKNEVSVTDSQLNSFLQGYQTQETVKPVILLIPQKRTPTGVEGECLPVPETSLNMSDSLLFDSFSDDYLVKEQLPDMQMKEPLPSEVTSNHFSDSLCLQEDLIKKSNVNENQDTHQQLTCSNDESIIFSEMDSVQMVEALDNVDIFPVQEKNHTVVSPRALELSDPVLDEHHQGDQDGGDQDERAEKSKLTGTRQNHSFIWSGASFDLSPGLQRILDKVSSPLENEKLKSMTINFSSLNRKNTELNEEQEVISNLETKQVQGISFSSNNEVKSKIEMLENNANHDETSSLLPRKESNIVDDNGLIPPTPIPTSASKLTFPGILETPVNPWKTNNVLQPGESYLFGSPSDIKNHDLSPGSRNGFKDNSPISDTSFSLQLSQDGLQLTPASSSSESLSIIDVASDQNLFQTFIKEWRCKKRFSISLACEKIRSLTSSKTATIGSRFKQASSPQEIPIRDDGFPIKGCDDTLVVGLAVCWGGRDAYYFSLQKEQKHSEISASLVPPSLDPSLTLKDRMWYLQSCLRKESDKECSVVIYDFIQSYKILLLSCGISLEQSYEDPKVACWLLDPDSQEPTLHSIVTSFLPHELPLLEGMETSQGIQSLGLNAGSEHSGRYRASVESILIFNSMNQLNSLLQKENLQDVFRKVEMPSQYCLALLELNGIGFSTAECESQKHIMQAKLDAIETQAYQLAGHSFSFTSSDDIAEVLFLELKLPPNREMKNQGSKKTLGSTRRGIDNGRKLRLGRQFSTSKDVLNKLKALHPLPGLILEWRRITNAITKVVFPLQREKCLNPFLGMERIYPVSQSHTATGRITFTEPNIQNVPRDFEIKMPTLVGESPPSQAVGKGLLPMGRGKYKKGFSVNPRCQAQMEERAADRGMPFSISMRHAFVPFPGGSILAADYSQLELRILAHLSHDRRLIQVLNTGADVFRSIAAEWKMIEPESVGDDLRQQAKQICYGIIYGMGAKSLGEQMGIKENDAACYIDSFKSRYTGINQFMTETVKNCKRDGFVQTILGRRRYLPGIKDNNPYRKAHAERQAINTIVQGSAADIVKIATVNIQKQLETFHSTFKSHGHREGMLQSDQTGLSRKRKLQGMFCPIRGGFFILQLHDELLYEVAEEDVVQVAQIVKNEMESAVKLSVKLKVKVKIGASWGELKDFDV

IC50: ~180 nM
Substance: ART899
